Laboratory results reported in ChEMBL document CHEMBL1201862, “PubChem BioAssay data set” (2004).
The source made the active and inactive calls.

Experiments:
[1] = molecular target: T1, DNA repair and recombination protein RAD54-like (Homo sapiens, UniProt Q92698); experiment: RAD54 Holliday junction migration blockers – biochemical, fluorescence, cherry-picked samples, dose series, confirmation (AID 651657); assay type: functional
T1 sequence (Q92698 whole entry): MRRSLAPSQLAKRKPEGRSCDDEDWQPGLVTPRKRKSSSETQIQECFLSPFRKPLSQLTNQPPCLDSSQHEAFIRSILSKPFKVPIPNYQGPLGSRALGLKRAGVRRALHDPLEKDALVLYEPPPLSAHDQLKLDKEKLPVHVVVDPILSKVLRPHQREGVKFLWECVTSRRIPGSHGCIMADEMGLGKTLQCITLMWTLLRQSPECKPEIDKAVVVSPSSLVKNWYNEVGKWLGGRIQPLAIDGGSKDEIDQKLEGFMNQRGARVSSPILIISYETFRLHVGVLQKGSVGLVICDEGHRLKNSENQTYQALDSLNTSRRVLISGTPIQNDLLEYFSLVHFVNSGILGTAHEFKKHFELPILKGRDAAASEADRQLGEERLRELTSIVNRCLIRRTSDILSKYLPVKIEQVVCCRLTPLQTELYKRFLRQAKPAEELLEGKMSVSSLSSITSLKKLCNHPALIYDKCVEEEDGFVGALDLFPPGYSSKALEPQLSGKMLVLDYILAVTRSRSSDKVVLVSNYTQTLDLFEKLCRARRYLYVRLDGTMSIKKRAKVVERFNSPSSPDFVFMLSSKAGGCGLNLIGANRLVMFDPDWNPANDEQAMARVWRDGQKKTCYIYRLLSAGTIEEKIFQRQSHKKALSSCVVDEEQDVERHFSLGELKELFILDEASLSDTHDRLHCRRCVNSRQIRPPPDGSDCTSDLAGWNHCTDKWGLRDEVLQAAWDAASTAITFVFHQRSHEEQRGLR

[2] = molecular target: T2, Endoribonuclease toxin MazF (Escherichia coli K-12, UniProt P0AE70); experiment: activation of MazEF endoribonuclease cleavage – biochemical, fluorescence, single-stranded RNA substrate, uHTS hits, dose response (AID 588481); assay type: functional
T2 sequence (P0AE70 whole entry): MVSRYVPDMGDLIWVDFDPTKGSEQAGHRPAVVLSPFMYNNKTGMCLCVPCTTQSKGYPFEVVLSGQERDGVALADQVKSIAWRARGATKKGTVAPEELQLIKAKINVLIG

[3] = molecular target: T2, Endoribonuclease toxin MazF; experiment: substrate-only fluorescence increase artefacts – biochemical, single-stranded RNase substrate, counter-screen for MazEF activator project, dose response (AID 588502); assay type: functional
[4] = molecular target: T3, Zinc finger protein mex-5 (Caenorhabditis elegans, UniProt Q9XUB2); experiment: potency of MEX-5 RNA-binding blockers – biochemical, C. elegans, fluorescence polarization, dose response (AID 1960)
T3 sequence (Q9XUB2 whole entry): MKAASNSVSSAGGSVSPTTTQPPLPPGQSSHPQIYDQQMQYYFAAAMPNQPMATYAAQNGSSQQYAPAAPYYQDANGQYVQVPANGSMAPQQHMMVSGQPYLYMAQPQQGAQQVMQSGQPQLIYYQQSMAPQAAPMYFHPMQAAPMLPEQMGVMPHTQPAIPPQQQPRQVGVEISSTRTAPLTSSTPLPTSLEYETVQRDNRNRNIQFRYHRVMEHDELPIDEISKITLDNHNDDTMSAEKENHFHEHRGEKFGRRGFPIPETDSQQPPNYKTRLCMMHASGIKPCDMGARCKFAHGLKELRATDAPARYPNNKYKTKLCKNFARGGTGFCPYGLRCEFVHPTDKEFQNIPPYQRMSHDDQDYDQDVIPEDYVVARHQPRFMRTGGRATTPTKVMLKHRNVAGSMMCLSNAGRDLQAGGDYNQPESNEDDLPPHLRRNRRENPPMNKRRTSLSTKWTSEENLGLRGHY

[5] = molecular target: T4, RNA-binding protein pos-1 (Caenorhabditis elegans, UniProt G5EF15); experiment: disruptors of C. elegans POS-1 RNA interaction – biochemical, fluorescence polarization, dose response (AID 1964);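 also: purified POS-1 fused to maltose binding protein made in E. coli; potency of compounds blocking POS-1 binding to fluorescent RNA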
T4 sequence (G5EF15 whole entry): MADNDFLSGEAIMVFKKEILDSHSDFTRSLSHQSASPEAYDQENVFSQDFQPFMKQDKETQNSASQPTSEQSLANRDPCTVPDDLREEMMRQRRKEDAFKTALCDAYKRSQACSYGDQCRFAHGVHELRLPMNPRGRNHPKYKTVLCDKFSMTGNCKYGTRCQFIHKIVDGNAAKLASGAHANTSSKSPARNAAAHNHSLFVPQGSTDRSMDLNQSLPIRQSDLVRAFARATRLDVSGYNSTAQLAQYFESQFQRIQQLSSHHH

Galanin receptor type 3 = molecular target: T5, Galanin receptor type 3 (Homo sapiens, UniProt O60755); experiment: Fluorescence-based cell-based primary high throughput dose response assay to identify antagonists of the Galanin Receptor 3 (GalR3).; assay type: functional
T5 sequence (O60755 whole entry): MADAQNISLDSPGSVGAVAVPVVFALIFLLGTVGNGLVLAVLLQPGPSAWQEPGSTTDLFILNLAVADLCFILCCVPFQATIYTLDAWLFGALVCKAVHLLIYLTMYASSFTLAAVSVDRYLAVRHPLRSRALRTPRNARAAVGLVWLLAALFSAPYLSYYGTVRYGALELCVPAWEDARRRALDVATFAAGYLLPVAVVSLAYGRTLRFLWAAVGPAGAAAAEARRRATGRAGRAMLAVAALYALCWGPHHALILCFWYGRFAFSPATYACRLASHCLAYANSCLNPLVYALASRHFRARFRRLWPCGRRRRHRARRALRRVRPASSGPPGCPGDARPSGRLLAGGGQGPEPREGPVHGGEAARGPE

cells = assay type: functional, cell-based; conditions: HEK-CNG
Protein RecA = molecular target: T6, Protein RecA (Mycobacterium tuberculosis, UniProt P9WHJ3); experiment: Fluorescence Cell-Free Homogeneous Dose Retest to Identify Inhibitors of RecA-Intein Splicing Activity. [Related pubchem assays (depositor defined):AID2097, AID2223, AID489010, AID492950]; assay type: functional
T6 sequence (P9WHJ3 whole entry): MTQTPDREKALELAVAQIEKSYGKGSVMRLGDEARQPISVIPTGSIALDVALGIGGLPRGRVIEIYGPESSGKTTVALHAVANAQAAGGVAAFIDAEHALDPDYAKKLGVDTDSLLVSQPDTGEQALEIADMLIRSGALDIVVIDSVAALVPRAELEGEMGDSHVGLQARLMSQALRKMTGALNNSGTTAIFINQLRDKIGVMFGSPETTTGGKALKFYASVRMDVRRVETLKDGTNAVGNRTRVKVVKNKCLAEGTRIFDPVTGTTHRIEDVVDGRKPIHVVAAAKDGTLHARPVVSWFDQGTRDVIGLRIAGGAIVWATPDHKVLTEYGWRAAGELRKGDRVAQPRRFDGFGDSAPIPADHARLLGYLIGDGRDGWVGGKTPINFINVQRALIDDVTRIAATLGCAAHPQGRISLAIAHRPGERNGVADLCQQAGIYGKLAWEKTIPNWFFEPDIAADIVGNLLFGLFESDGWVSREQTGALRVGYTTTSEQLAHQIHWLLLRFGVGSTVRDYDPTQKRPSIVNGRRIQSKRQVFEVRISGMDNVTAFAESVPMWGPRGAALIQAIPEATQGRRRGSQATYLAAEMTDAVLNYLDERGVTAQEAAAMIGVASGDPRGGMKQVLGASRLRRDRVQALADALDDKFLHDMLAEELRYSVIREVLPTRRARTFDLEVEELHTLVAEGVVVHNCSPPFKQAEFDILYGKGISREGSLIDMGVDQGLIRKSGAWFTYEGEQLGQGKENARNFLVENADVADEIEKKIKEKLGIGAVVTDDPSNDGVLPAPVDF

[6] = Trypanosoma cruzi growth suppression in host cells – NIH3T3 host cells, beta-gal luminescence, confirmation (AID 2044); assay type: functional, cell-based;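 also: intracellular parasites grown in NIH/3T3 mouse fibroblasts as host cells; luminescent beta-galactosidase reporter signal from transgenic T. cruzi replicating inside host cells; inhibitors lower the luminescence signal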
[7] = molecular target: T7, Replicative DNA helicase DnaB (Mycobacterium tuberculosis, UniProt P9WMR3); experiment: DnaB intein splicing inhibitors, dose response, biochemical, cell-free fluorescence (AID 449749); assay type: functional
T7 sequence (P9WMR3 whole entry): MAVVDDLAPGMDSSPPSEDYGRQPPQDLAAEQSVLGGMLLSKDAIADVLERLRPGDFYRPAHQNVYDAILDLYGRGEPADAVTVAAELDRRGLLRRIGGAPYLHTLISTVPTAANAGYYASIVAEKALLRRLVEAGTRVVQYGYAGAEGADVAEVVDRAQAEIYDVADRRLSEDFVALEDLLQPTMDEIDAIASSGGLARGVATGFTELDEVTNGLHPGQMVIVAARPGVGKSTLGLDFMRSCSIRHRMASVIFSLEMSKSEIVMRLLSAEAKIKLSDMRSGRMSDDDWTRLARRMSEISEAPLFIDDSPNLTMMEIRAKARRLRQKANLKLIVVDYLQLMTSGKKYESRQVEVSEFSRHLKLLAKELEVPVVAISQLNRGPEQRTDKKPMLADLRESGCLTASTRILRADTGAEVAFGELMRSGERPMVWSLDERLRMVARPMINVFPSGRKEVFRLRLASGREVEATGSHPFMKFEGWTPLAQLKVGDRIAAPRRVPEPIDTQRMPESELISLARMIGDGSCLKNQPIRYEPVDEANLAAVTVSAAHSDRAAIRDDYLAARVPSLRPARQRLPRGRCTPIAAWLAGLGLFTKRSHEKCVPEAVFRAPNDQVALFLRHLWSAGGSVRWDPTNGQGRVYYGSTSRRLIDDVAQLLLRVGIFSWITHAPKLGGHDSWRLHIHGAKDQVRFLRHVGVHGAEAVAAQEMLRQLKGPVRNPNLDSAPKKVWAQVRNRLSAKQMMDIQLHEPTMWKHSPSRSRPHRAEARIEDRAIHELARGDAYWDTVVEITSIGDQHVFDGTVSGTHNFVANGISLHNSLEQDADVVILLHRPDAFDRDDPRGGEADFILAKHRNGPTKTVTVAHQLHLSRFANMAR

[8] = microbe, parasite or virus in culture; assay type: functional; conditions: Mycobacterium tuberculosis
[9] = NIH3T3 cell viability loss – ATP luminescence, mouse fibroblasts, counter-screen, dose response (AID 2010); assay type: functional, cell-based;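 also: cells exposed to compound for about 90 hours before reading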
[10] = HIV-1 AD8 envelope cell-cell fusion blockers – cherry-pick, dose response (AID 652062); assay type: functional, cell-based;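 also: luciferase signal from cell-cell fusion driven by HIV-1 clade B AD8 Env; potency is for inhibitors of fusion seen as a drop in luminescence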
[11] = loss of viability in HepG2 cells – cell-based, CellTiter-Glo, cherry-picked, cytotoxicity control for Shn3 inhibitor project, dose response (AID 624134); assay type: functional
[12] = reduction of Shn3 3'UTR-driven luciferase in osteoblasts – cell-based, Clone20 osteoblasts, firefly luciferase, cherry-picked, dose response (AID 624132); assay type: functional;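 also: firefly luciferase luminescence from reporter carrying the Shn3 3'UTR in osteoblasts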
[13] = non-specific 3'UTR reporter inhibition in Clone20-Shn3RL – cell-based, Renilla luciferase, cherry-picked, counter-screen for Shn3 inhibitor project, dose response (AID 624133); assay type: functional
Cytochrome P450 2C9 = Cytochrome P450 2C9 (Homo sapiens, UniProt P11712)
Sequence of Cytochrome P450 2C9 (P11712 whole entry): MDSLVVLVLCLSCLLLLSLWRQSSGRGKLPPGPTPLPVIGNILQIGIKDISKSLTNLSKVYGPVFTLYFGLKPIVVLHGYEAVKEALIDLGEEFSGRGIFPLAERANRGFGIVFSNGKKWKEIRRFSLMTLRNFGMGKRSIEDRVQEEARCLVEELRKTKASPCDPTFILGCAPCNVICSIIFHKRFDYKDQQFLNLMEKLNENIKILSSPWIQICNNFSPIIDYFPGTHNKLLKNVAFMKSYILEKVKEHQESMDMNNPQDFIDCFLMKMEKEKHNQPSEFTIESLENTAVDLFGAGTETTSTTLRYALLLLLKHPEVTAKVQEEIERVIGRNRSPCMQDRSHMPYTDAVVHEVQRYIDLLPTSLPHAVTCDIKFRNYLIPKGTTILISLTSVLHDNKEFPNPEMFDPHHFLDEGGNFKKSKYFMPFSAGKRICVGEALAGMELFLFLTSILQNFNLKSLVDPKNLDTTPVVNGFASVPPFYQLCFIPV

[14] = intracellular Trypanosoma cruzi inhibitors in host cells – cell-based, plate reader, cherry-pick samples, set 3, dose response (AID 651818); assay type: functional;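 also: compounds incubated with infected cells for about four days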
[15] = P. falciparum Dd2 growth inhibitors, dose response, SYBR Green, cherry-picked samples (AID 1159567); assay type: functional, cell-based

CN(C)CCCNc1nc(-c2ccccc2)nc2ccccc12
AC50 [1]: 28.8 µM (active)

Cc1cccc2cc3c(N)c(C(=O)N4CCc5ccccc54)sc3nc12
EC50 [2]: > 99 µM (inactive) | EC50 [3]: 43.4 µM (inactive)

Cc1cccn2c(=O)c3cc(C#N)c(=O)n(CCCN4CCOCC4)c3nc12
AC50 [1]: 48.9 µM (active)

Cc1cc(/C=C2\C(=O)NC(=O)N(Cc3ccccc3)C2=O)c(C)n1C1CC1
EC50 [4]: > 300 µM (not active) | EC50 [5]: > 300 µM (not active) | EC50 [2]: > 99 µM (inactive) | EC50 [3]: 23.4 µM (inactive)

COc1ccc(-c2cn(-c3ccc(C)c(Cl)c3)c(S)n2)cc1OC
IC50 (Galanin receptor type 3): > 29.9 µM (inactive) | EC50 (cells): > 29.9 µM (inactive)

COc1ccc(Nc2nc(N3CCCCC3)nc3ccccc23)c(OC)c1
EC50 (Protein RecA): 114 µM (active) | AC50 [1]: 62.2 µM (active) | EC50 [6]: 0.578 µM (active) | AC50 [7]: 280 µM (active) | CC50 [8]: > 40 µM (active) | EC50 [9]: > 60 µM (inconclusive)

C=CCNc1nc2c(c(=O)n(C)c(=O)n2C)n1CCCCCC
IC50 (Galanin receptor type 3): 1.95 µM (active) | AC50 [10]: 7.74 µM (active) | AC50 [11]: 2.6 µM (active) | AC50 [12]: 0.761 µM (active) | EC50 (cells): > 29.9 µM (inactive) | AC50 [13]: 1.18 µM (active)

Nc1nn2c(O)c3c(nc2c1N=Nc1ccccc1)CCCC3
AC50 (Cytochrome P450 2C9): 8.91 µM (inconclusive) | IC50 (Galanin receptor type 3): 3.7 µM (active) | EC50 (cells): > 29.9 µM (inactive)

CN1CCc2[nH]c3ccc(C(=O)NN)cc3c2C1
AC50 [1]: 100 µM (inactive)

CN(C)c1ccc(C=C2C=Cc3ccccc32)cc1
EC50 [2]: > 99 µM (inactive) | EC50 [3]: 20.7 µM (inactive)

Cc1ccc(S(=O)(=O)Nc2ccc3c(c2)CC(=O)N([C@@H](C)CO)C[C@@H](C)[C@@H](CN(C)Cc2ccc(C(=O)Nc4ccccc4N)cc2)O3)cc1
AC50 [14]: 2.94 µM (active)

C[C@@H]1CN([C@H](C)CO)C(=O)c2cccc(NC(=O)Nc3cccc4ccccc34)c2O[C@@H]1CN(C)C(=O)Nc1ccc(F)cc1
AC50 [14]: 3.81 µM (active) | AC50 [15]: 3.76 µM (active)

Cc1ccc(S(=O)(=O)Nc2cccc3c2O[C@@H](CN(C)Cc2ccc(C(=O)Nc4ccccc4N)cc2)[C@@H](C)CN([C@H](C)CO)C3=O)cc1
AC50 [14]: 5.8 µM (active)

COc1ccc(S(=O)(=O)Nc2ccc3c(c2)CC(=O)N([C@@H](C)CO)C[C@H](C)[C@H](CN(C)Cc2ccc(Cl)c(Cl)c2)O3)cc1
AC50 [14]: 5.64 µM (active)
